According to patent publication US8440724B2, “Inhibiting neurotransmitter reuptake” (Mayo Foundation for Medical Education and Research, priority 2008, dated 2013):
“Also recorded” adds a separate entry of the source. Where two headings read alike, the source gives them in different places.

Legend:
[1] = target: T1, human norepinephrine transporter (hNET) (Homo sapiens, UniProt P23975); assay: Radioligand binding to cloned hNET, [3H]nisoxetine, HEK-293 cell membranes
T1 construct: expressed in transfected cells; host or cells: HEK-293, stably transfected

hSERT, hNET, hDAT = assay: Human transporter binding: rank order and range of potency over the three transporters; conditions: for Potency (rank-order of potency of binding; S = hSERT, N = hNET, D = hDAT): from KD values; for Potency Range (difference between most potent and least potent binding): ratio of KD over hSERT, hNET, hDAT
From the text: The program was modified to calculate the Hill coefficient (nH). Data are presented as geometric mean±S.E.M. of at least three independent experiments. One-component models and two-component models were compared using the root mean square error of each fit and the F test.

[2] = target: T2, rat dopamine transporter, synaptosomal preparations (Rattus norvegicus, UniProt P23977); assay: Inhibition of [3H]DA reuptake in rat brain synaptosomes (striatum); assay type: biochemical
T2 construct: and striatal tissues for transport of dopamine; from tissue; host or cells: rat striatum synaptosomes (male Sprague-Dawley)
Experimental: The dissected tissues were separately homogenized in 20 volumes (cortical) or 40 volumes (striatal) of ice-cold, oxygenated HEPES buffer 0.32 M sucrose containing 11 mM glucose (pH 7.4) in a glass Potter-Elvehjem homogenizer with Teflon® pestle (8 strokes, 900 rpm). The homogenates were centrifuged at 1,000×g for 10 minutes. The resulting supernatant was decanted and further centrifuged at 20,000×g for 20 minutes at 4° C. […] The synaptosomal protein concentration was determined by using the BCA assay (Pierce Biotechnology Inc, Rockford, Ill.), according to the manufacturer's instructions. Synaptosomal protein (1.0-2.5 mg) was suspended in 1 mL oxygenated incubation buffer as defined above. Test amine compound was pre-incubated with the synaptosomal preparation for 30 minutes at 37° C. in a shaking water bath (80 oscillations/minute).

[3] = target: human dopamine transporter (Homo sapiens, UniProt Q01959); assay: Inhibition of [3H]DA transport into HEK-293 cells expressing the human transporter
[4] = target: human serotonin transporter (Homo sapiens, UniProt P31645); assay: Inhibition of [3H]5-HT transport into HEK-293 cells expressing the human transporter
CYP2D6 = target: T3, CYP2D6 (Homo sapiens, UniProt P10635); assay: CYP2D6 inhibition, CYP2D6/AMMC kit (BD Biosciences), fluorescent substrate; assay type: in vitro ADME; conditions: for Potency of inhibition at CYP2D6, in words: compared with PRC200-SS
T3 construct: purchased BD Biosciences 459200
From the text: This kit includes the use of a fluorescent P450 substrate (AMMC or 3-[2-(N,N-diethyl-N-methylamino)ethyl]-7-methoxy-4-methylcoumarin) and recombinant human P450.

hERG = hERG (Homo sapiens, UniProt Q12809); assay: hERG assay: block of rubidium ion (Rb+) efflux from cells expressing hERG; conditions: for Blocking of hERG channel compared with PRC200-SS: in words
Experimental: Human “ether-a-go-go” (hERG) is an ion channel. Blockade of this channel can be predictive of causing cardiac arrhythmias in humans. hERG assays were performed to measure the ability of a compound to block rubidium ion (Rb^+) efflux from cells expressing hERG. Cells were pre-loaded with Rb^+, incubated with test compound, and then exposed to a buffer that opens the channel and allows the efflux of ions. Compounds as powder were dissolved in 100% DMSO to prepare 100 mM stock solutions. […] The stocks were stored at 23° C.
The range of doses for the test compounds was 30 nM through 100,000 nM.

mice = assay: Locomotor activity in motility chamber, mice; assay type: in vivo, mouse; conditions: doses that exhibited positive effects in the TST, FIG. 11
Male Sprague-Dawley rats = assay: Forced swim test in rats; assay type: in vivo, rat
Method in brief: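 Male Sprague-Dawley rats got a 15 min pretest swim, then a 5-minute test 24 h later. Immobility (floating, only head-keeping movements) and swimming scored as total counts per 5-min session; ANOVA with Tukey post-hoc test.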

[5] = Geometric Mean ± SEM, HCl salts, read-out: Equilibrium Dissociation Constant (KD) for Transporter Binding, hNET (N)
[6] = Geometric Mean ± SEM, rat brain synaptosomes, read-out: Inhibitor Constant (Ki), DA transport

human serotonin transporter, sequence (P31645 whole entry): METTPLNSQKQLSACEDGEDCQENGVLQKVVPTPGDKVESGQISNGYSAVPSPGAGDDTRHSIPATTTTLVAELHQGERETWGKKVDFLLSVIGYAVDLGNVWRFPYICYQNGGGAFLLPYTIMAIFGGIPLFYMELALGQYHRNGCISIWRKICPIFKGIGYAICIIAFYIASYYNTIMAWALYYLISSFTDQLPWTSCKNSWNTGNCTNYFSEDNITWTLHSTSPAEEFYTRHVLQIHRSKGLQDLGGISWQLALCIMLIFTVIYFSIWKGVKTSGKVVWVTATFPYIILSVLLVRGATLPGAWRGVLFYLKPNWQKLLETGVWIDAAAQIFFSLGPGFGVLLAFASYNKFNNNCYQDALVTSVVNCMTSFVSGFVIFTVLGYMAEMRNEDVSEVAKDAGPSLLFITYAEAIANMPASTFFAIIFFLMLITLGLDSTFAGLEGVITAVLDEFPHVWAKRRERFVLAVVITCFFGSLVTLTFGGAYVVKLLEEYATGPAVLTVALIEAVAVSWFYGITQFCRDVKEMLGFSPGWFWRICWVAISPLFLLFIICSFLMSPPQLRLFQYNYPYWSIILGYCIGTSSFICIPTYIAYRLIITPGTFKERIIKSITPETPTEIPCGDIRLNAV
T3 sequence (P10635 whole entry): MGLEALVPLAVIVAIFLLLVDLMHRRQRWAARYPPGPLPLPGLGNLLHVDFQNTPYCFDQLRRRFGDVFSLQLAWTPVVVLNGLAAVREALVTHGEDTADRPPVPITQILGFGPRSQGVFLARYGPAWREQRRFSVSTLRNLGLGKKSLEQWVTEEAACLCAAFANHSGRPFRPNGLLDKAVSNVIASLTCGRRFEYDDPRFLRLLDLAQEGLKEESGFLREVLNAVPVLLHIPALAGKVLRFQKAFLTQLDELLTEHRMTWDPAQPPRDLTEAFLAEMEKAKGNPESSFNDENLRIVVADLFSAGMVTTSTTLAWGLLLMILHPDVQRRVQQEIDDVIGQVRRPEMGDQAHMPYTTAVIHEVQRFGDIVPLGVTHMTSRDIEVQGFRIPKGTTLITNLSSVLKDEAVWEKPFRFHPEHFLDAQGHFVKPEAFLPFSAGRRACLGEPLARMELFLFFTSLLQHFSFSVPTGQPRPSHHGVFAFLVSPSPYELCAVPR
T1 sequence (P23975 whole entry): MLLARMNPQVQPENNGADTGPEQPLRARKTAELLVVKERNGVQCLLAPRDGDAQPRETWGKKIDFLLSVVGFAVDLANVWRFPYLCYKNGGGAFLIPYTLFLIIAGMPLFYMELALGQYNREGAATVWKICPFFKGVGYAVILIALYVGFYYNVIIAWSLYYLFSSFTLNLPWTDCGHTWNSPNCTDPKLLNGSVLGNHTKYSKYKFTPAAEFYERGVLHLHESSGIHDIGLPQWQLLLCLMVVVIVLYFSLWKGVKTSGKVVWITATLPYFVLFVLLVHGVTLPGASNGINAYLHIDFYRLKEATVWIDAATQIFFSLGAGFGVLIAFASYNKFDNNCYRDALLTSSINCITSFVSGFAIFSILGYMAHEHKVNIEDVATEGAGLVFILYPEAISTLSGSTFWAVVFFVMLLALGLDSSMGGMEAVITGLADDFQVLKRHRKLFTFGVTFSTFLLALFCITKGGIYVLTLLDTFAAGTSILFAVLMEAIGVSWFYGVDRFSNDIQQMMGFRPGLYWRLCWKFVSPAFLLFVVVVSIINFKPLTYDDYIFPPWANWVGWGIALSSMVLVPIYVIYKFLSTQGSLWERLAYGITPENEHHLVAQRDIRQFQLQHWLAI
human dopamine transporter, sequence (Q01959 whole entry): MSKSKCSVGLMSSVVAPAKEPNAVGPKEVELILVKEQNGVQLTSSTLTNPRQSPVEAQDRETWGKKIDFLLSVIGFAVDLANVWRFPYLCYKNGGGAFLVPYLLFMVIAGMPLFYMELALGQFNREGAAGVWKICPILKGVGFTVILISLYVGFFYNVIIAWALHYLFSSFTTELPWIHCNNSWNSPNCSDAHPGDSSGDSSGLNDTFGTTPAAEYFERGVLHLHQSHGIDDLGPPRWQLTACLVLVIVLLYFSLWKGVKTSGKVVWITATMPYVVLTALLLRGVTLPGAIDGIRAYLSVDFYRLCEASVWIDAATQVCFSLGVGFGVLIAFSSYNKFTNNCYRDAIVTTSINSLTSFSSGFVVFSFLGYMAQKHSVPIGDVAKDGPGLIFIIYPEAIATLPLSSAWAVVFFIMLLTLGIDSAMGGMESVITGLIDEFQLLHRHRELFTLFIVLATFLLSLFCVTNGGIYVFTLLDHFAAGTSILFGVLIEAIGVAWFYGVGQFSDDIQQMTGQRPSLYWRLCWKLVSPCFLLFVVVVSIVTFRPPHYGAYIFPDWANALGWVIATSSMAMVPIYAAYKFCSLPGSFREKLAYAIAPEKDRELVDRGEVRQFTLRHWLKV
hERG, sequence (Q12809 whole entry): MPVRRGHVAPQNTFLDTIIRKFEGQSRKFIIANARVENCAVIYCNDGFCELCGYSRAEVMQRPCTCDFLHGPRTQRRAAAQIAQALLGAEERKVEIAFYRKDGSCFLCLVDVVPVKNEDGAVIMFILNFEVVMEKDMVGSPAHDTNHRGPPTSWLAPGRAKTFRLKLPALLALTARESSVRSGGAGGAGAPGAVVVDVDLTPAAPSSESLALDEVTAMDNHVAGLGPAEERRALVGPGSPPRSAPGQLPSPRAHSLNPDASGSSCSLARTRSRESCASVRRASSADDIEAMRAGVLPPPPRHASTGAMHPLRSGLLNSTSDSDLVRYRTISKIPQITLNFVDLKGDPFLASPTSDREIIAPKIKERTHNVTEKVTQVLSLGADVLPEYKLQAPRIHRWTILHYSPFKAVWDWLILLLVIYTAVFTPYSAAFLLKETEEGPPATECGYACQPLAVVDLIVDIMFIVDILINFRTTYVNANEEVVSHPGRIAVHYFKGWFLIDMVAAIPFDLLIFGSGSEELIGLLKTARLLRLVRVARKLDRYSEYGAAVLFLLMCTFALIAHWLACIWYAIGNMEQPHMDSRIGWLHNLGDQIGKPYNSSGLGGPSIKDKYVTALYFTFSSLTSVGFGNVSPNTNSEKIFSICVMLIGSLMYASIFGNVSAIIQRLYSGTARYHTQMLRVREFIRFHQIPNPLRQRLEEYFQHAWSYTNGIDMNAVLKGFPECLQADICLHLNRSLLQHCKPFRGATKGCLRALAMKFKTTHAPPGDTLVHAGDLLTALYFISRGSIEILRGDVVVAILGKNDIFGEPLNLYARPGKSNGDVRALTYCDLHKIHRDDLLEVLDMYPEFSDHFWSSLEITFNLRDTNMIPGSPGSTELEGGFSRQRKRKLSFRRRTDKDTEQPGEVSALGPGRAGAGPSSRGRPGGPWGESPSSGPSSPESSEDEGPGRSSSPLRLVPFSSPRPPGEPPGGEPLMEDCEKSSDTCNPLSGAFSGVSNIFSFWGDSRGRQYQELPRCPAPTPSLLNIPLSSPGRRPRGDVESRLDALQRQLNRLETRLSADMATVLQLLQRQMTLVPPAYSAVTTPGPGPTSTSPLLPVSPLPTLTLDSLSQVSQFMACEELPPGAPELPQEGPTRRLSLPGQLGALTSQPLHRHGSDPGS
T2 sequence (P23977 whole entry): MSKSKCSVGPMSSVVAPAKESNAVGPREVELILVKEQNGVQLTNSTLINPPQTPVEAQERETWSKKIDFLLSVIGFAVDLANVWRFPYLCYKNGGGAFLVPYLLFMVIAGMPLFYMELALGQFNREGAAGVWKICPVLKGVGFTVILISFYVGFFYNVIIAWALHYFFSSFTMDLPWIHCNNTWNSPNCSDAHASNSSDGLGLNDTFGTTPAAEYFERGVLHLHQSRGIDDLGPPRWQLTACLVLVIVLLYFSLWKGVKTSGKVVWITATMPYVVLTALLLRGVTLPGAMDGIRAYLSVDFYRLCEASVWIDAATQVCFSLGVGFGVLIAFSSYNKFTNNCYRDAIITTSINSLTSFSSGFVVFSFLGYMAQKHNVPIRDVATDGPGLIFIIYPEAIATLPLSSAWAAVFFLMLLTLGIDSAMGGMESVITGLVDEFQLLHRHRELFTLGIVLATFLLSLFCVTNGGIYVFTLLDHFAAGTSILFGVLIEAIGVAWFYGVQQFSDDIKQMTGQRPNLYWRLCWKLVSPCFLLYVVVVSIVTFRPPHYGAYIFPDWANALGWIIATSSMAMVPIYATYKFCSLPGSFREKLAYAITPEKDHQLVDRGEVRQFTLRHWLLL

| Structure (SMILES) | Kd [1, 5] | Potency (rank-order of potency of binding; S = hSERT, N = hNET, D = hDAT) (hSERT, hNET, hDAT) | Potency Range (difference between most potent and least potent binding) (hSERT, hNET, hDAT) | Ki [2, 6] | Ki [3] | Ki [4] | Kd [1] | IC50 (hERG) | Antidepressant activity in forced swim test compared with imipramine (15 mg/kg IP) (Male Sprague-Dawley rats; 5 mg/kg IP, FIG. 12A) | Immobility in forced swim test vs saline (Male Sprague-Dawley rats; 5 mg/kg IP) | Swimming in forced swim test vs saline (Male Sprague-Dawley rats; 5 mg/kg IP) | also measured |
| --- | --- | --- | --- | --- | --- | --- | --- | --- | --- | --- | --- | --- |
| CNC[C@@H](c1ccc2ccccc2c1)[C@H](N=[N+]=[N-])c1ccccc1 [MCJ001-N3-SR, (2R,3S)-3-azido-N-methyl-2-(naphthalen-2-yl)-3-phenylpropan-1-amine] | 700 ± 100 nM | S > N > D | 3.8 fold | 2000 ± 300 nM | 77 nM | 46 ± 6 nM | – | – | – | – | – | – |
| CNC[C@H](c1ccc2ccccc2c1)[C@@H](F)c1ccccc1 [MCJ001-F-RS, (2S,3R)-3-fluoro-N-methyl-2-(naphthalen-2-yl)-3-phenylpropan-1-amine] | – | N > S > D | 21 fold | – | 30 ± 5 nM | 3.5 ± 0.9 nM | 0.9 ± 0.1 nM | 92400 nM | antidepressant activity that was similar to that observed in rats treated with the positive control | – | – | Potency of inhibition at CYP2D6, in words (CYP2D6): markedly reduced the potency of inhibition at CYP2D6; IC50 (CYP2D6; recombinant human P450, AMMC substrate, read-out: Mean CYP2D6 (IC50)): 160 nM; Blocking of hERG channel compared with PRC200-SS (hERG): weaker than PRC200-SS at blocking this channel; Ki [2]: 58 ± 6 nM; Effect on locomotor activity (mice): Only d-amphetamine caused a significant effect on locomotor activity; Immobility in forced swim test, 5 mg/kg IP vs 5 mg/kg PO of the same compound (Male Sprague-Dawley rats): statistically (P<0.02) more swimming and less immobility; Swimming in forced swim test, 5 mg/kg IP vs 5 mg/kg PO of the same compound (Male Sprague-Dawley rats): statistically (P<0.02) more swimming and less immobility; Climbing in forced swim test vs saline (Male Sprague-Dawley rats; 5 mg/kg IP): statistically (P<0.02) more swimming and climbing; Immobility in forced swim test vs saline (Male Sprague-Dawley rats; 5 mg/kg IP, 5 mg/kg): statistically (P<0.04) less immobility; also recorded: statistically (P<0.02) less immobility; Swimming in forced swim test vs saline (Male Sprague-Dawley rats; 5 mg/kg IP, 5 mg/kg): statistically (P<0.04) more swimming behavior; also recorded: statistically (P<0.02) more swimming and climbing; Immobility in forced swim test vs imipramine (15 mg/kg IP) (Male Sprague-Dawley rats; 5 mg/kg IP, FIG. 12A): statistically (P<0.04) less immobility than rats treated with imipramine; Climbing in forced swim test vs saline (Male Sprague-Dawley rats; 5 mg/kg PO): statistically (P<0.02) more swimming and climbing; Immobility in forced swim test vs saline (Male Sprague-Dawley rats; 5 mg/kg PO): statistically (P<0.02) less immobility; Swimming in forced swim test vs saline (Male Sprague-Dawley rats; 5 mg/kg PO): statistically (P<0.02) more swimming and climbing |
| CNC[C@H](c1ccc2ccccc2c1)[C@H](OC)c1ccccc1 [MCJ001-OMe-SS, (2S,3S)-3-methoxy-N-methyl-2-(naphthalen-2-yl)-3-phenylpropan-1-amine] | 1.4 ± 0.2 nM | N > S > D | 29 fold | 46 ± 5 nM | 21 ± 3 nM | 12 ± 2 nM | – | – | antidepressant activity that was similar to that observed in rats treated with the positive control | statistically (P<0.04) less immobility | statistically (P<0.04) more swimming behavior | Potency of inhibition at CYP2D6, in words (CYP2D6): markedly reduced the potency of inhibition at CYP2D6; Effect on locomotor activity (mice): Only d-amphetamine caused a significant effect on locomotor activity |
| CNC[C@H](c1ccc2ccccc2c1)[C@@H](N=[N+]=[N-])c1ccccc1 [MCJ001-N3-RS, (2S,3R)-3-azido-N-methyl-2-(naphthalen-2-yl)-3-phenylpropan-1-amine] | 64 ± 7 nM | N > S > D | 3.0 fold | 270 ± 50 nM | 64 nM | 48 ± 10 nM | – | 39200 nM | antidepressant activity that was similar to that observed in rats treated with the positive control | statistically (P<0.04) less immobility | statistically (P<0.04) more swimming behavior | IC50 (CYP2D6): 4000 nM |
| CN(C)C[C@H](c1ccc2ccccc2c1)[C@H](N)c1ccccc1 [MCJ002-NH2-SS, (2S,3S)-N1,N1-dimethyl-2-(naphthalen-2-yl)-3-phenylpropane-1,3-diamine] | 12.6 ± 0.9 nM | S > D > N | 5.3 fold | – | – | – | – | 67900 nM | antidepressant activity that was similar to that observed in rats treated with the positive control | statistically (P<0.04) less immobility | statistically (P<0.04) more swimming behavior | Occupancy of hNET binding sites ([1]; when the compound occupies 95% of hSERT binding sites, calculation based on occupancy theory): 79% |
| CNC[C@H](c1ccc2ccccc2c1)[C@H](OCCCCCO[C@H](c1ccccc1)[C@H](CNC)c1ccc2ccccc2c1)c1ccccc1 [MCJ001-Dimer5-SS, (2S,2′S,3S,3′S)-3,3′-(pentane-1,5-diylbis(oxy))bis(N-methyl-2-(naphthalen-2-yl)-3-phenylpropan-1-amine)] | 160 ± 30 nM | D > S > N | 1.4 fold | 800 ± 300 nM | 52 nM | 14 ± 2 nM | – | – | – | – | – | – |
| CNCC(c1ccc2ccccc2c1)C(F)c1ccccc1 (racemic) [MCJ001-F-(±)-RR, (2R,3R/2S,3S)-3-fluoro-N-methyl-2-(naphthalen-2-yl)-3-phenylpropan-1-amine] | – | S > N > D | 36 fold | 250 ± 9 nM | 33 ± 1 nM | 18 ± 3 nM | 4.5 ± 0.8 nM | – | – | – | – | – |
| CNC[C@@H](c1ccc2ccccc2c1)[C@H](F)c1ccccc1 [MCJ001-F-SR, (2R,3S)-3-fluoro-N-methyl-2-(naphthalen-2-yl)-3-phenylpropan-1-amine] | – | D > S > N | 12 fold | 130 ± 20 nM | – | 150 nM | 430 ± 70 nM | 94000 nM | antidepressant activity that was similar to that observed in rats treated with the positive control | statistically (P<0.04) less immobility | statistically (P<0.04) more swimming behavior | Binding at hNET compared to PRC200-SS ([1]; in words): much more weakly at hNET and hSERT; Potency (rank-order of potency of binding; S = hSERT, N = hNET, D = hDAT) (hSERT, hNET, hDAT; listed as MCJ001-F—SR): D>S>N; Blocking of hERG channel compared with PRC200-SS (hERG): weaker than PRC200-SS at blocking this channel |
